From patent publication US10543247B2, “Aloe preparation for skin enhancement” (Woodcliff Skincare Solutions, Inc., priority 2007, dated 2020)

Columns and labels:
scald hyperalgesia = details: compared with phenylbutazone; cited from earlier work
human TLR2 = biological target: T1, human TLR2 (Homo sapiens, UniProt O60603); assay: TLR2 expression vector experiment: HEK 293 cells with NF-kappa B reporter and pDUO-hCD14/TLR2; format: cell-based; details: HEK 293 cells expressing TLR2 and CD14; 6 hours; FIG. 10B
T1 construct: host or cells: HEK 293 cells, transient transfection by electroporation
Protocol: HEK 293 cells were cultured in DMEM/F12 medium supplemented with fetal bovine serum (10%) and 1% penicillin-streptomycin at 37° C., under 5% CO2. Actively growing cells were transiently transfected with the appropriate plasmid(s) using electroporation (at 150 V and one 70-ms pulse). Following electroporation, cells were plated at a density of 5×10^4 cells in 200 μl/well of culture medium. After 48 hours, agents to be tested were added to transfected cells. Six hours after addition of samples, cells were harvested and luciferase activity measured. The NF-kappa B plasmid construct (pBIIXLUC) contained two copies of NF-kappa B motif from HIV/IgK. Plasmids co-expressing human CD14 and human TLR2 (pDUO-hCD14/TLR2) were purchased from InvivoGen. Zymosan was purchased from Sigma, Staphylococcus aureus peptidoglycan from Fluka and ultra pure Salmonella minnesota LPS from List Biological Laboratories, Inc.
FIGS. 10A-10B depict that AloeEx (batch 2-5-05) acts through TLR2. HEK 293 cells (cell line with minimal TLR expression) were transiently transfected with a luciferase reporter gene construct containing two binding sites for NF-kappa B, alone (FIG. 10A), or in combination with the pDUO-hCD14/TLR2 expression plasmid (FIG. 10B). […] Luciferase activity was determined 6 hours after addition of agents.

T1 sequence (O60603 21-784): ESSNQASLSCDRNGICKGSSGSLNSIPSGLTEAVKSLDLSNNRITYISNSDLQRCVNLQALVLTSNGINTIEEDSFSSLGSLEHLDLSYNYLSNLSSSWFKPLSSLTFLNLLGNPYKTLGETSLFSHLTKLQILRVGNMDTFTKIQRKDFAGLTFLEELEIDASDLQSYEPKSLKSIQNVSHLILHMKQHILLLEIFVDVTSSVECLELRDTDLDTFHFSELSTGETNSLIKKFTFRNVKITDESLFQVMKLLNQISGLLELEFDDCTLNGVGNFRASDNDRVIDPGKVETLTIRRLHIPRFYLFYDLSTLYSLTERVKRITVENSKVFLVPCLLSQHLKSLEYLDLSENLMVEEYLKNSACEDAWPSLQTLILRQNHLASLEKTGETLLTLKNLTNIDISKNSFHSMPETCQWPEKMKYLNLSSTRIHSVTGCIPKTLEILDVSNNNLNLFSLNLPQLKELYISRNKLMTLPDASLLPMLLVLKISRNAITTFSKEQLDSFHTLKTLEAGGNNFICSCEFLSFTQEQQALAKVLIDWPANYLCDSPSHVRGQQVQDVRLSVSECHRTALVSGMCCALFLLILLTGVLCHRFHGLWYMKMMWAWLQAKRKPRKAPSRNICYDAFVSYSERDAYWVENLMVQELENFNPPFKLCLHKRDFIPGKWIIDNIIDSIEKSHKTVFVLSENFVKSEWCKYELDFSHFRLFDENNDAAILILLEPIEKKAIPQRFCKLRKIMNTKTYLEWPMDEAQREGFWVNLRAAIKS

Row | Substance | inhibitory effect on scald hyperalgesia (scald hyperalgesia) | activation of NF-kappa B (human TLR2)
1 | O-acetylated-D-mannan [O-acetylated-D-mannan (T-2-HN)] | more marked inhibitory effect than phenylbutazone | 
2 | peptidoglycan |  | also activated NF-kappa B
